EP0348735A2, “5-Chlor-4-cyano-thiazol-2-yl-oxyacetic-acid amide” (BAYER AG, priority 1988, dated 1990)

Test system: Testpflanzen
Experiment: Pre-emergence test (herbicidal activity)
Format: in vivo
Conditions: seeds watered with the preparation 24 h after sowing, rated after three weeks, compared in words with the prior-art comparison substance 2-(Benzthiazol-2-yl-oxy)-essigsäure-N-methyl-anilid, no numbers given
Source text: Zur Herstellung einer zweckmäßigen Wirkstoffzubereitung vermischt man 1 Gewichtsteil Wirkstoff mit der angegebenen Menge Lösungsmittel, gibt die angegebene Menge Emulgator zu und verdünnt das Konzentrat mit Wasser auf die gewünschte Konzentration.
Samen der Testpflanzen werden in normalen Boden ausgesät und nach 24 Stunden mit der Wirkstoffzubereitung begossen. Dabei hält man die Wassermenge pro Flächeneinheit zweckmäßigerweise konstant. Die Wirkstoffkonzentration in der Zubereitung spielt keine Rolle, entscheidend ist nur die Aufwandmenge des Wirkstoffs pro Flächeneinheit. Nach drei Wochen wird der Schädigungsgrad der Pflanzen bonitiert in % Schädigung im Vergleich zur Entwicklung der unbehandelten Kontrolle.

## CN(C(=O)COc1nc(C#N)c(Cl)s1)c1ccccc1 [Beispiel 1, 2-(5-Chlor-4-cyanothiazol-2-yl-oxy)-essigsäure-N-methyl-anilid]
  Wirksamkeit (Schädigungsgrad der Pflanzen in % Schädigung im Vergleich zur unbehandelten Kontrolle): deutliche Überlegenheit in der Wirksamkeit
